pIC50: −log10 of the molar value.
Key:
[1] = Antiproliferative activity against mouse P388 cells assessed as reduction in cell viability measured after 72 hrs; type: functional, cell-based; details: time 72 hrs
P388/ADR = test: Antiproliferative activity against mouse P388/ADR cells assessed as reduction in cell viability measured after 72 hrs; type: functional, cell-based; details: time 72 hrs
KB = test: Antiproliferative activity against human KB cells; type: functional, cell-based
HepG2 = test: Antiproliferative activity against human HepG2 cells; type: functional, cell-based
[2] = Antiproliferative activity against human MRC5 cells assessed as reduction in cell viability; type: toxicity, cell-based
HCT-116 = test: Antiproliferative activity against human HCT-116 cells assessed as reduction in cell viability; type: functional, cell-based; details: Homo sapiens, HCT-116
MDA-MB-231 [3] = test: Antiproliferative activity against human MDA-MB-231 cells assessed as reduction in cell viability; type: functional, cell-based
HT-29 = test: Antiproliferative activity against human HT-29 cells assessed as reduction in cell viability; type: functional, cell-based
A549 = test: Antiproliferative activity against human A549 cells; type: functional, cell-based
K562 = test: Antiproliferative activity against human K562 cells; type: functional, cell-based
PC-3 = test: Antiproliferative activity against human PC-3 cells; type: functional, cell-based
A-431 = test: Antiproliferative activity against human A-431 cells; type: functional, cell-based
MDA-MB-231 [4] = test: Antiproliferative activity against human MDA-MB-231 cells; type: functional, cell-based; details: Homo sapiens, MDA-MB-231
COLO 205 = test: Antiproliferative activity against human COLO 205 cells; type: functional, cell-based
HEK293 = test: Antiproliferative activity against human HEK293 cells; type: functional, cell-based
HL-60 = test: Antiproliferative activity against human HL-60 cells assessed as reduction in cell viability measured after 72 hrs; type: functional, cell-based; details: HL-60, time 72 hrs
[5] = Antiproliferative activity against human U-87 MG cells; type: functional, cell-based, U-87MG ATCC
NCI-H460 = test: Antiproliferative activity against human NCI-H460 cells; type: functional, cell-based

C[C@H]1[C@@H](Oc2ccc(C(=O)N3CCN(c4ccccc4)CC3)cc2)O[C@@H]2O[C@@]3(C)CC[C@H]4[C@H](C)CC[C@@H]1[C@@]24OO3
22.1 nM: GI50 [1] | GI50 (P388/ADR)

CC1=CN([C@H]2C[C@H](n3cc(-c4cccc(NC(=O)CCC(=O)O[C@@H]5O[C@@H]6O[C@@]7(C)CC[C@H]8[C@H](C)CC[C@@H]([C@H]5C)[C@@]68OO7)c4)nn3)[C@@H](CO)O2)C(C)NC1=O (some centres undefined)
4.32: pIC50 (KB) | pIC50 (HepG2)

Cc1c(C)c2cccc(OCc3cn(CCO[C@@H]4O[C@@H]5O[C@@]6(C)CC[C@H]7[C@H](C)CC[C@@H]([C@H]4C)[C@@]57OO6)nn3)c2oc1=O
6.37: pIC50 [2] | pIC50 (HCT-116) | pIC50 (MDA-MB-231 [3]) | pIC50 (HT-29)

Cc1cn([C@H]2C[C@H](n3cc(CNC(=O)CCCC(=O)O[C@@H]4O[C@@H]5O[C@@]6(C)CC[C@H]7[C@H](C)CC[C@@H]([C@H]4C)[C@@]57OO6)nn3)[C@@H](CO)O2)c(=O)[nH]c1=O
4.32: pIC50 (KB) | pIC50 (HepG2)

C[C@H]1[C@@H](OCCn2cc(COc3ccc(C=O)c(O)c3)nn2)O[C@@H]2O[C@@]3(C)CC[C@H]4[C@H](C)CC[C@@H]1[C@@]24OO3
4.75: pIC50 (A549) | pIC50 (K562) | pIC50 (PC-3) | pIC50 (A-431) | pIC50 (MDA-MB-231 [4]) | pIC50 (COLO 205) | pIC50 (HEK293)

C[C@H]1[C@@H](Oc2ccc(C(=O)N3CCN(Cc4ccccc4)CC3)cc2)O[C@@H]2O[C@@]3(C)CC[C@H]4[C@H](C)CC[C@@H]1[C@@]24OO3
22.1 nM: GI50 [1] | GI50 (P388/ADR)

Cc1cn([C@H]2C[C@H](n3cc(COC(=O)CCCC(=O)O[C@@H]4O[C@@H]5O[C@@]6(C)CC[C@H]7[C@H](C)CC[C@@H]([C@H]4C)[C@@]57OO6)nn3)[C@@H](CO)O2)c(=O)[nH]c1=O
4.78: pIC50 (KB) | pIC50 (HepG2)

Cc1cc(=O)oc2c(OCc3cn(CCCO[C@@H]4O[C@@H]5O[C@@]6(C)CC[C@H]7[C@H](C)CC[C@@H]([C@H]4C)[C@@]57OO6)nn3)cccc12
6.37: pIC50 [2] | pIC50 (HCT-116) | pIC50 (MDA-MB-231 [3]) | pIC50 (HT-29)

Cc1c(Cl)c(=O)oc2c(OCc3cn(CCCO[C@@H]4O[C@@H]5O[C@@]6(C)CC[C@H]7[C@H](C)CC[C@@H]([C@H]4C)[C@@]57OO6)nn3)cccc12
6.37: pIC50 [2] | pIC50 (HCT-116) | pIC50 (MDA-MB-231 [3]) | pIC50 (HT-29)

C[C@H]1[C@H](OCCn2cc(COc3cccc4c(C(F)(F)F)cc(=O)oc34)nn2)O[C@@H]2O[C@@]3(C)CC[C@H]4[C@H](C)CC[C@@H]1[C@@]24OO3
6.37: pIC50 [2] | pIC50 (HCT-116) | pIC50 (MDA-MB-231 [3]) | pIC50 (HT-29)

CC(=O)c1ccccc1-n1cc(CO[C@H]2O[C@@H]3O[C@]4(C)OO[C@]35[C@@H](CC[C@@H](C)[C@@H]5C[C@H]4O)[C@H]2C)nn1
4.60: pIC50 (A549) | pIC50 (K562) | pIC50 (PC-3) | pIC50 (A-431) | pIC50 (MDA-MB-231 [4]) | pIC50 (COLO 205) | pIC50 (HEK293)

C[C@H]1[C@H](OCCCn2cc(COc3cccc4c(C(F)(F)F)cc(=O)oc34)nn2)O[C@@H]2O[C@@]3(C)CC[C@H]4[C@H](C)CC[C@@H]1[C@@]24OO3
6.37: pIC50 [2] | pIC50 (HCT-116) | pIC50 (MDA-MB-231 [3]) | pIC50 (HT-29)

CCN1CCN(C(=O)CCC(=O)O[C@@H]2O[C@@H]3O[C@]4(C)CC[C@H]5[C@H](C)CC[C@@H]([C@H]2C)[C@@]35OO4)CC1
231 nM: GI50 [1] | GI50 (HL-60) | GI50 (P388/ADR)

Cc1cn([C@H]2C[C@H](n3cc(CNC(=O)CC(C)CC(=O)O[C@@H]4O[C@@H]5O[C@@]6(C)CC[C@H]7[C@H](C)CC[C@@H]([C@H]4C)[C@@]57OO6)nn3)[C@@H](CO)O2)c(=O)[nH]c1=O (some centres undefined)
4.32: pIC50 (KB) | pIC50 (HepG2)

CCOC(=O)c1cc2cccc(OCc3cn(CCO[C@@H]4O[C@@H]5O[C@@]6(C)CC[C@H]7[C@H](C)CC[C@@H]([C@H]4C)[C@@]57OO6)nn3)c2oc1=O
6.37: pIC50 [2] | pIC50 (HCT-116) | pIC50 (MDA-MB-231 [3]) | pIC50 (HT-29)

C[C@H]1[C@H](OCCOc2cccc(/C=C/S(=O)(=O)Nc3c(Cl)cccc3Cl)c2)O[C@@H]2O[C@@]3(C)CC[C@H]4[C@H](C)CC[C@@H]1[C@@]24OO3
7.30: pIC50 (HT-29) | pIC50 (A549) | pIC50 (MDA-MB-231 [4]) | pIC50 [5] | pIC50 (NCI-H460)

C[C@H]1[C@H](OCCOc2cccc(/C=C/S(=O)(=O)Nc3ccccc3Cl)c2)O[C@@H]2O[C@@]3(C)CC[C@H]4[C@H](C)CC[C@@H]1[C@@]24OO3
7.30: pIC50 (HT-29) | pIC50 (A549) | pIC50 (MDA-MB-231 [4]) | pIC50 [5] | pIC50 (NCI-H460)

CC(C)N1CCN(C(=O)CCC(=O)O[C@@H]2O[C@@H]3O[C@]4(C)CC[C@H]5[C@H](C)CC[C@@H]([C@H]2C)[C@@]35OO4)CC1
231 nM: GI50 [1] | GI50 (HL-60) | GI50 (P388/ADR)

C[C@H]1[C@@H](OCc2cn(-c3ccc(C#N)cc3)nn2)O[C@@H]2O[C@]3(C)OO[C@]24[C@H]1CC[C@@H](C)[C@@H]4C[C@H]3O
4.60: pIC50 (A549) | pIC50 (K562) | pIC50 (PC-3) | pIC50 (A-431) | pIC50 (MDA-MB-231 [4]) | pIC50 (COLO 205) | pIC50 (HEK293)

C[C@H]1[C@@H](OCCn2cc(COc3cccc(O)c3)nn2)O[C@@H]2O[C@@]3(C)CC[C@H]4[C@H](C)CC[C@@H]1[C@@]24OO3
4.75: pIC50 (A549) | pIC50 (K562) | pIC50 (PC-3) | pIC50 (A-431) | pIC50 (MDA-MB-231 [4]) | pIC50 (COLO 205) | pIC50 (HEK293)

C[C@H]1[C@H](OC(=O)CCC(=O)N2CCN(c3ccccc3)CC2)O[C@@H]2O[C@]3(C)CC[C@H]4[C@H](C)CC[C@@H]1[C@@]24OO3
231 nM: GI50 [1] | GI50 (HL-60) | GI50 (P388/ADR)

CC(=O)c1cccc(-n2cc(CO[C@H]3O[C@@H]4O[C@]5(C)OO[C@]46[C@@H](CC[C@@H](C)[C@@H]6C[C@H]5O)[C@H]3C)nn2)c1
4.60: pIC50 (A549) | pIC50 (K562) | pIC50 (PC-3) | pIC50 (A-431) | pIC50 (MDA-MB-231 [4]) | pIC50 (COLO 205) | pIC50 (HEK293)

Cc1c(Cl)c(=O)oc2c(OCc3cn(CCO[C@@H]4O[C@@H]5O[C@@]6(C)CC[C@H]7[C@H](C)CC[C@@H]([C@H]4C)[C@@]57OO6)nn3)cccc12
6.37: pIC50 [2] | pIC50 (HCT-116) | pIC50 (MDA-MB-231 [3]) | pIC50 (HT-29)

Cc1c(C)c2cccc(OCc3cn(CCCO[C@@H]4O[C@@H]5O[C@@]6(C)CC[C@H]7[C@H](C)CC[C@@H]([C@H]4C)[C@@]57OO6)nn3)c2oc1=O
6.37: pIC50 [2] | pIC50 (HCT-116) | pIC50 (MDA-MB-231 [3]) | pIC50 (HT-29)

C[C@H]1[C@H](OC(=O)CCC(=O)N2CCN(C)CC2)O[C@@H]2O[C@]3(C)CC[C@H]4[C@H](C)CC[C@@H]1[C@@]24OO3
231 nM: GI50 [1] | GI50 (HL-60) | GI50 (P388/ADR)

C[C@H]1[C@@H](Oc2ccc(C(=O)N3CCN(C/C=C/c4ccccc4)CC3)cc2)O[C@@H]2O[C@@]3(C)CC[C@H]4[C@H](C)CC[C@@H]1[C@@]24OO3
22.1 nM: GI50 [1] | GI50 (P388/ADR)

C[C@H]1[C@@H](OCC(O)Cn2cc(-c3cccc(N)c3)nn2)O[C@@H]2O[C@@]3(C)CC[C@H]4[C@H](C)CC[C@@H]1[C@@]24OO3 (some centres undefined)
4.48: pIC50 (HepG2)
4.90: pIC50 (KB)

Cc1cc(=O)oc2c(OCc3cn(CCO[C@@H]4O[C@@H]5O[C@@]6(C)CC[C@H]7[C@H](C)CC[C@@H]([C@H]4C)[C@@]57OO6)nn3)cccc12
6.37: pIC50 [2] | pIC50 (HCT-116) | pIC50 (MDA-MB-231 [3]) | pIC50 (HT-29)

CCOC(=O)c1cc2cccc(OCc3cn(CCCO[C@@H]4O[C@@H]5O[C@@]6(C)CC[C@H]7[C@H](C)CC[C@@H]([C@H]4C)[C@@]57OO6)nn3)c2oc1=O
6.37: pIC50 [2] | pIC50 (HCT-116) | pIC50 (MDA-MB-231 [3]) | pIC50 (HT-29)

C[C@@H]1CC[C@H]2[C@@H](C)C(OCCOc3cccc(/C=C/S(=O)(=O)Nc4ccc(Cl)cc4)c3)O[C@@H]3O[C@@]4(C)CC[C@@H]1[C@]32OO4 (single isomer, unassigned)
7.30: pIC50 (HT-29) | pIC50 (A549) | pIC50 (MDA-MB-231 [4]) | pIC50 [5] | pIC50 (NCI-H460)

Cc1cn(C2C[C@H](n3cc(CNC(=O)C(C)CC(=O)O[C@@H]4O[C@@H]5O[C@@]6(C)CC[C@H]7[C@H](C)CC[C@@H]([C@H]4C)[C@@]57OO6)nn3)[C@@H](CO)O2)c(=O)[nH]c1=O (single isomer, unassigned)
4.32: pIC50 (KB) | pIC50 (HepG2)

Cc1cn(C2C[C@H](n3cc(COC(=O)CCC(=O)O[C@@H]4O[C@@H]5O[C@@]6(C)CC[C@H]7[C@H](C)CC[C@@H]([C@H]4C)[C@@]57OO6)nn3)[C@@H](CO)O2)c(=O)[nH]c1=O (single isomer, unassigned)
4.78: pIC50 (KB) | pIC50 (HepG2)

COc1cccc2c1C(=O)c1c(O)c3c(c(O)c1C2=O)C[C@@](O)(C(=O)CO)C[C@@H]3O[C@H]1C[C@H](N)[C@H](O)[C@H](C)O1 [DOXORUBICIN]
7.30: pIC50 (HCT-116) | pIC50 (MDA-MB-231 [3]) | pIC50 (HT-29)
3730 nM: GI50 (P388/ADR)
8.7 nM: GI50 [1] | GI50 (HL-60)
5.84: pIC50 (K562) | pIC50 (PC-3) | pIC50 (A-431) | pIC50 (MDA-MB-231 [4]) | pIC50 (COLO 205) | pIC50 (HEK293)
